Our source for the EC50 values is patent publication US20150087673A1, “METHODS FOR USING AND BIOMARKERS FOR AMPK-ACTIVATING COMPOUNDS” (RIGEL PHARMACEUTICALS, INC., priority 2013, published 2015).

Bounds are passed on as bounds.

For this test, the system named is AMPK. In words: AMPK activation assay (enzyme-linked immunosorbent assay). It counts as cell-based. The method in brief:
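Activation by each compound is measured using a conventional commercial immunoassay kit.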

By EC50 is commonly meant the midpoint of the concentration-response curve. Take `CN1CCN(c2ccc(C(=O)C3CCN(C(=O)c4cnc(C(=O)NC5CCN(Cc6ccc(C#N)cc6)CC5)cn4)CC3)cc2)CC1` [Compound 220, N-(1-(4-cyanobenzyl)piperidin-4-yl)-5-(4-(4-(4-methylpiperazin-1-yl)benzoyl)piperidine-1-carbonyl)pyrazine-2-carboxamide]: the EC50 is less than 500 nM.
The result for `N#Cc1ccc(CN2CCC(NC(=O)c3ccc(N4CCC(Oc5ccc(C(F)(F)F)cc5)CC4)cn3)CC2)cc1` [Compound 301, N-(1-(4-cyanobenzyl)piperidin-4-yl)-5-(4-(4-(trifluoromethyl)phenoxy)piperidin-1-yl)picolinamide] reads less than 500 nM; that for `N#Cc1ccc(OC2CCN(C(=O)c3ccc(C(=O)NC4CCN(Cc5cocn5)CC4)cn3)CC2)cc1` [Compound 355, 6-(4-(4-cyanophenoxy)piperidine-1-carbonyl)-N-(1-(oxazol-4-ylmethyl)piperidin-4-yl)nicotinamide], greater than 10000 nM.
The result for `N#Cc1ccc(OC2CCN(C(=O)c3ccc(C(=O)NC4CCN(Cc5ccc(N6CCCC6)cc5)CC4)nc3)CC2)cc1` [Compound 197, 5-(4-(4-cyanophenoxy)piperidine-1-carbonyl)-N-(1-(4-(pyrrolidin-1-yl)benzyl)piperidin-4-yl)picolinamide] reads less than 500 nM; that for `O=C(c1ccc(-c2cccc(OCc3ccccc3)c2)nc1)N1CCN(Cc2ccc(F)cc2)CC1` [Compound 22, (6-(3-(benzyloxy)phenyl)pyridin-3-yl)(4-(4-fluorobenzyl)piperazin-1-yl)methanone], less than 500 nM; that for `N#Cc1ccc(O[C@H]2CC[C@@H](NC(=O)c3ccc(C(=O)N4CCN(Cc5ccc(F)cc5)CC4)nc3)CC2)cc1` [Compound 332, N-((cis)-4-(4-cyanophenoxy)cyclohexyl)-6-(4-(4-fluorobenzyl)piperazine-1-carbonyl)nicotinamide], less than 500 nM.
The result for `N#Cc1ccc(CN2CCC(NC(=O)c3ccc(C(=O)N4CCC(C(=O)c5ccc(N6CCCC6)cc5)CC4)nc3)CC2)cc1` [Compound 377, N-(1-(4-cyanobenzyl)piperidin-4-yl)-6-(4-(4-(pyrrolidin-1-yl)benzoyl)piperidine-1-carbonyl)nicotinamide] reads less than 500 nM; that for `COc1ccc(CN2CCN(C(=O)c3ccc(C(=O)NC4CCN(Cc5ccc(C#N)cc5)CC4)nc3)CC2)cc1` [Compound 101, N-(1-(4-cyanobenzyl)piperidin-4-yl)-5-(4-(4-methoxybenzyl)piperazine-1-carbonyl)picolinamide], less than 500 nM; that for `O=C(c1ccc(C(=O)N2CCN(Cc3ccc(F)cc3)CC2)nc1)N1CCN(Cc2ccc(F)cc2)CC1` [Compound 3, pyridine-2,5-diylbis((4-(4-fluorobenzyl)piperazin-1-yl)methanone)], 500 to 1000 nM.
Take `N#Cc1ccc(N2CCC(NC(=O)c3ccc(C(=O)N4CCN(Cc5ccc(F)cc5)CC4)nc3)CC2)cc1` [Compound 417, N-(1-(4-cyanophenyl)piperidin-4-yl)-6-(4-(4-fluorobenzyl)piperazine-1-carbonyl)nicotinamide]: the EC50 was less than 500 nM.
`COc1ccc(C(=O)C2CCN(C(=O)c3ccc(C(=O)N(C)C4CCN(Cc5ccc(C#N)cc5)CC4)cn3)CC2)cc1` [Compound 482, N-(1-(4-cyanobenzyl)piperidin-4-yl)-6-(4-(4-methoxybenzoyl)piperidine-1-carbonyl)-N-methylnicotinamide]: the 50% effective concentration (EC50) is less than 500 nM.
With `COc1ccc(CN2CCC(NC(=O)c3ccc(C(=O)N4CCC(C(=O)c5ccc(F)cc5)CC4)cn3)CC2)cc1` [Compound 160, 5-(4-(4-fluorobenzoyl)piperidine-1-carbonyl)-N-(1-(4-methoxybenzyl)piperidin-4-yl)picolinamide], the EC50 was less than 500 nM.
For the compound `N#Cc1ccc(CN2CCC(NC(=O)c3ccc(C(=O)N4CCC(Oc5ccc(C#N)cc5)CC4)cn3)CC2)cc1` [Compound 135, N-(1-(4-cyanobenzyl)piperidin-4-yl)-5-(4-(4-cyanophenoxy)piperidine-1-carbonyl)picolinamide], the EC50 was less than 500 nM.
Compound `N#Cc1ccc(CN2CCC(NC(=O)c3ccc(C(=O)N4CCN(c5ccc(C(=O)C(F)(F)F)cc5)CC4)cn3)CC2)cc1` [Compound 263, N-(1-(4-cyanobenzyl)piperidin-4-yl)-5-(4-(4-(2,2,2-trifluoroacetyl)phenyl)piperazine-1-carbonyl)picolinamide] came in with an EC50 of less than 500 nM.
In turn, `N#Cc1ccc(-c2ccc(NC(=O)c3ccc(C(=O)N4CCN(Cc5ccc(F)cc5)CC4)cn3)cc2)cc1` [Compound 24, N-(4-(4-cyanophenyl)phenyl)-5-(4-(4-fluorobenzyl)piperazine-1-carbonyl)picolinamide] came in with an EC50 of less than 500 nM.
The value for `N#Cc1ccc(CN2CCC(NC(=O)c3cccc(C(=O)NC4CCN(Cc5ccc(C#N)cc5)CC4)n3)CC2)cc1` [Compound 86, N2,N6-bis(1-(4-cyanobenzyl)piperidin-4-yl)pyridine-2,6-dicarboxamide] was 1000 to 5000 nM; that for `COc1ccc(C(=O)C2CCN(C(=O)c3ccc(C(=O)NC4CCN(Cc5cc(F)cc(F)c5)CC4)cn3)CC2)cc1` [Compound 310, N-(1-(3,5-difluorobenzyl)piperidin-4-yl)-6-(4-(4-methoxybenzoyl)piperidine-1-carbonyl)nicotinamide] was less than 500 nM; that for `O=C(NC1CCN(Cc2ccc(F)cc2)CC1)c1ccc(C(=O)N2CCC(Oc3cccc(NC(=O)C4CC4)c3)CC2)nc1` [Compound 432, 6-(4-(3-(cyclopropanecarboxamido)phenoxy)piperidine-1-carbonyl)-N-(1-(4-fluorobenzyl)piperidin-4-yl)nicotinamide] was 500 to 1000 nM.
The value for `O=C(NC1CCN(Cc2cc(F)cc(F)c2)CC1)c1ccc(C(=O)N2CCC(C(=O)c3ccc(F)cc3)CC2)cn1` [Compound 288, N-(1-(3,5-difluorobenzyl)piperidin-4-yl)-5-(4-(4-fluorobenzoyl)piperidine-1-carbonyl)picolinamide] was less than 500 nM; that for `O=C(NC1CCN(Cc2ccccc2)CC1)c1ccc(C(=O)N2CCN(c3ccccc3)CC2)cn1` [Compound 97, N-(1-benzylpiperidin-4-yl)-5-(4-phenylpiperazine-1-carbonyl)picolinamide] was 1000 to 5000 nM.
With `N#Cc1ccc(CN2CCC(NC(=O)c3ccc(C(=O)N4CCC(c5ccc(Cl)cc5)CC4)cn3)CC2)cc1` [Compound 134, 5-(4-(4-chlorophenyl)piperidine-1-carbonyl)-N-(1-(4-cyanobenzyl)piperidin-4-yl)picolinamide], the EC50 was less than 500 nM.
Compound `N#Cc1ccc(CN2CC[C@@H](NC(=O)c3ccc(C(=O)N4CCC(Oc5ccc(S(=O)(=O)C(F)(F)F)cc5)CC4)nc3)[C@H](F)C2)cc1` (relative stereo) [Compound 451, N-((trans)-1-(4-cyanobenzyl)-3-fluoropiperidin-4-yl)-6-(4-(4-(trifluoromethylsulfonyl)phenoxy)piperidine-1-carbonyl)nicotinamide] came in with an EC50 of less than 500 nM.
The value for `CC(=O)Nc1cccc(OC2CCN(C(=O)c3ccc(C(=O)Nc4ccc(Oc5ccc(F)cc5)nc4)cn3)CC2)c1` [Compound 414, 6-(4-(3-acetamidophenoxy)piperidine-1-carbonyl)-N-(6-(4-fluorophenoxy)pyridin-3-yl)nicotinamide] was 1000 to 5000 nM.
The value for `COc1ccc(CC2CCN(C(=O)c3ccc(C(=O)NC4CCN(Cc5ccc(C#N)cc5)CC4)nc3)CC2)cc1` [Compound 131, N-(1-(4-cyanobenzyl)piperidin-4-yl)-5-(4-(4-methoxybenzyl)piperidine-1-carbonyl)picolinamide] was less than 500 nM; that for `CS(=O)(=O)c1ccc(C(=O)C2CCN(C(=O)c3ccc(C(=O)NC4CCN(Cc5ccc(N6CCCC6)cc5)CC4)cn3)CC2)cc1` [Compound 229, 6-(4-(4-(methylsulfonyl)benzoyl)piperidine-1-carbonyl)-N-(1-(4-(pyrrolidin-1-yl)benzyl)piperidin-4-yl)nicotinamide] was 1000 to 5000 nM.
The result for `COc1ccc(C(=O)C2CCN(C(=O)c3ccc(C(=O)NC4CCC(Oc5ccc(C#N)cc5)CC4)cn3)CC2)cc1` (centres unmarked) [Compound 315, N-((1s,4s)-4-(4-cyanophenoxy)cyclohexyl)-6-(4-(4-methoxybenzoyl)piperidine-1-carbonyl)nicotinamide] reads less than 500 nM.
`CS(=O)(=O)c1ccc(C(=O)C2CCN(C(=O)c3ccc(C(=O)NC4CCN(Cc5ccc(N6CCCC6)cc5)CC4)nc3)CC2)cc1` [Compound 233, 5-(4-(4-(methylsulfonyl)benzoyl)piperidine-1-carbonyl)-N-(1-(4-(pyrrolidin-1-yl)benzyl)piperidin-4-yl)picolinamide] came in with an EC50 of less than 500 nM.
In turn, `COc1ccc(C(=O)C2CCN(C(=O)c3ccc(C(=O)N[C@@H]4CCN(Cc5ccc(C#N)c(F)c5)C[C@H]4F)cn3)CC2)cc1` (relative stereo) [Compound 354, N-((trans)-1-(4-cyano-3-fluorobenzyl)-3-fluoropiperidin-4-yl)-6-(4-(4-methoxybenzoyl)piperidine-1-carbonyl)nicotinamide] displayed an EC50 of less than 500 nM.
The result for `O=C(NC1CCN(Cc2ccccc2)CC1)c1ccc(C(=O)N2CCN(c3ccncc3)CC2)cn1` [Compound 96, N-(1-benzylpiperidin-4-yl)-5-(4-(pyridin-4-yl)piperazine-1-carbonyl)picolinamide] reads greater than 10000 nM.
The value for `N#Cc1ccc(CN2CCC(NC(=O)c3ccc(Nc4ccc(Cc5ccccc5)cc4)cn3)CC2)cc1` [Compound 108, 5-(4-benzylphenylamino)-N-(1-(4-cyanobenzyl)piperidin-4-yl)picolinamide] was 500 to 1000 nM.
The value for `O=C(NC1CCN(Cc2ccc(F)cc2)CC1)c1ccc(C(=O)N2CC[C@H](Oc3ccc(F)cc3)C2)cn1` [Compound 182, (S)-N-(1-(4-fluorobenzyl)piperidin-4-yl)-5-(3-(4-fluorophenoxy)pyrrolidine-1-carbonyl)picolinamide] was less than 500 nM.
Turning to `CN(C)C(=O)c1ccc(Oc2ccc(NC(=O)c3ccc(C(=O)N4CCC(C(=O)c5ccc(F)cc5F)CC4)nc3)cn2)cc1` [Compound 481, 6-(4-(2,4-difluorobenzoyl)piperidine-1-carbonyl)-N-(6-(4-(dimethylcarbamoyl)phenoxy)pyridin-3-yl)nicotinamide], the EC50 is less than 500 nM.
